In patent US8133907B2, “Pyridine derivatives as dipeptedyl peptidase inhibitors” (Eli Lilly and Company, priority 2005, dated 2012) one finds IC50 data, which are given here for four compounds.

Structures can show the parent of a compound that is named as a salt.

The assay deals with T1, human recombinant DPIV enzyme (Homo sapiens, UniProt P27487).
T1 construct: Secreted DPIV (lacking membrane anchor) is enriched from HEK293 cell culture supernatant; made in house; host or cells: HEK293
T1 sequence (P27487 29-766 limits assumed): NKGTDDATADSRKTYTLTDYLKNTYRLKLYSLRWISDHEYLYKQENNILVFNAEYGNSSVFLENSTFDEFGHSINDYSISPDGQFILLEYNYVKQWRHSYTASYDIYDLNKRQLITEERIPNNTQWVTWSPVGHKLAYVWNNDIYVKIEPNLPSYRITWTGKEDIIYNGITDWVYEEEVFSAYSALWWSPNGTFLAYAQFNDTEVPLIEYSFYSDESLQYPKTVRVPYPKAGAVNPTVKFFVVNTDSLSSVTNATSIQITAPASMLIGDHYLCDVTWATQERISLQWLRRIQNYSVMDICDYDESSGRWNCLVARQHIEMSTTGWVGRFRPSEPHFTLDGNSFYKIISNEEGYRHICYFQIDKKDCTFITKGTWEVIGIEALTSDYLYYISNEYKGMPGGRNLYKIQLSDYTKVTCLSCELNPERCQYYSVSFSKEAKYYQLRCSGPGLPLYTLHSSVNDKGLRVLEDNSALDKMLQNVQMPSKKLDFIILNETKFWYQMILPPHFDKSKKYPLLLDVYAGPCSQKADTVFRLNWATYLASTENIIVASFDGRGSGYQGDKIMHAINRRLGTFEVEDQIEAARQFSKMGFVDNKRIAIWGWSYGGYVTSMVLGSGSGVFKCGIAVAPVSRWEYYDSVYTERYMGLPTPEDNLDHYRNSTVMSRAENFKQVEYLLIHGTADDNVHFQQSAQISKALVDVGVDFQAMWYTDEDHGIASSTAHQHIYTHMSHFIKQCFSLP
In words: Human Recombinant DPIV Activity Assay (fluorometric end point, Gly-Pro-AMC substrate). It counts as biochemical. The following applies: enriched human recombinant DPIV enzyme (21.3 μU/μl), Gly-Pro-AMC 0.02 mM, 12 points concentration response curve, duplicate. The method, then: Human Recombinant DPIV Activity Assay
The DPIV assay uses a fluorometric end point assay (excitation 355 nm; emission 460 nm), enriched human recombinant DPIV enzyme (21.3 μU/μl), and Gly-Pro-AMC (Bachem I-1225) as substrate (0.02 mM). Secreted DPIV (lacking membrane anchor) is enriched from HEK293 cell culture supernatant by ultrafiltration, ultra-centrifugation, and size-exclusion chromatography. IC50 values of the compounds are calculated based on a 12 points concentration response curve. Each concentration is measured in duplicate. The assay is validated by plate variability and conformity, inter-plate variability, signal window, and minimum significant ration of IC50. A MSR is calculated based on a test/retest analysis and a retrospective analysis. The MSR value is 1.8.
Take `CC(C)(C)NC(=O)c1cccnc1C[C@H](O)[C@H](N)Cc1cc(F)ccc1C(F)(F)F` (racemic) [Example 10, 2-[(2SR,3RS)-3-Amino-4-(5-fluoro-2-trifluoromethylphenyl)-2-hydroxybutyl]-N-tert-butylnicotinamide Dihydrochloride]: the IC50 (as a rule, the concentration that gives 50% inhibition) was 342 nM.

Take `Cc1ccc(C)c(C[C@@H](N)[C@@H](O)Cc2ncccc2C(=O)NC(C)(C)C)c1` [Example 8, 2-[(2S,3R)-3-Amino-4-(2,5-dimethyl-phenyl)-2-hydroxy-butyl]-N-tert-butyl-nicotinamide Dihydrochloride]: the IC50 worked out at 30 nM.

Regarding `CC(C)(NC(=O)c1cccnc1C[C@H](O)[C@H](N)Cc1ccccc1F)c1ccccc1` [Example 23, 2-[(2S,3R)-3-Amino-4-(2-fluoro-phenyl)-2-hydroxy-butyl]-N-(1-methyl-1-phenyl-ethyl)-nicotinamide Dihydrochloride], the IC50 was found to be 22 nM.

Consider `N[C@H](Cc1ccccc1F)[C@@H](O)Cc1ccccn1` [Example 27, (2S,3R)-3-Amino-4-(2,-fluoro-phenyl)-1-pyridin-2-yl-butan-2-ol Dihydrochloride], for which the IC50 came to 232 nM.
